In ChEMBL document CHEMBL2413072, “Synthesis and in vitro anticancer studies of novel C-2 arylidene congeners of lantadenes” (2013):

Key:
Assay type in all cases: functional
SW-620 [1] = experiment: Growth inhibition of human SW620 cells by sulforhodamine B assay
KM12 = experiment: Growth inhibition of human KM12 cells by sulforhodamine B assay
NCI-H322M [2] = experiment: Growth inhibition of human NCI-H322M cells by sulforhodamine B assay
HOP-62 = experiment: Growth inhibition of human HOP62 cells by sulforhodamine B assay
HOP-92 [3] = experiment: Growth inhibition of human HOP92 cells by sulforhodamine B assay
K562 [4] = experiment: Growth inhibition of human K562 cells by sulforhodamine B assay
UACC-62 [5] = experiment: Growth inhibition of human UACC62 cells assessed as cell growth at 10^-8 M by sulforhodamine B assay; conditions: read-out: Activity
SW-620 [6] = experiment: Growth inhibition of human SW620 cells assessed as cell growth at 10^-8 M by sulforhodamine B assay; conditions: read-out: Activity
NCI-H460 [7] = experiment: Growth inhibition of human NCI-H460 cells assessed as cell growth at 10^-8 M by sulforhodamine B assay; conditions: read-out: Activity
NCI-H522 = experiment: Growth inhibition of human NCI-H522 cells assessed as cell growth at 10^-8 M by sulforhodamine B assay; conditions: read-out: Activity
A549 [8] = experiment: Growth inhibition of human A549/ATCC cells assessed as cell growth at 10^-8 M by sulforhodamine B assay; conditions: read-out: Activity
MOLT-4 = experiment: Growth inhibition of human MOLT4 cells assessed as cell growth at 10^-8 M by sulforhodamine B assay; conditions: read-out: Activity
SK-OV-3 = experiment: Growth inhibition of human SKOV3 cells by sulforhodamine B assay
[9] = Growth inhibition of human NCI-ADR-RES cells by sulforhodamine B assay
IGROV-1 [10] = experiment: Growth inhibition of human IGROV1 cells by sulforhodamine B assay
SK-MEL-2 = experiment: Growth inhibition of human SK-MEL-2 cells by sulforhodamine B assay
TK-10 [11] = experiment: Growth inhibition of human TK10 cells assessed as cell growth at 10^-4 M by sulforhodamine B assay; conditions: read-out: Activity
786-0 [12] = experiment: Growth inhibition of human 786-0 cells assessed as cell growth at 10^-4 M by sulforhodamine B assay; conditions: read-out: Activity
IGROV-1 [13] = experiment: Growth inhibition of human IGROV1 cells assessed as cell growth at 10^-4 M by sulforhodamine B assay; conditions: read-out: Activity
UACC-62 [14] = experiment: Growth inhibition of human UACC62 cells assessed as cell growth at 10^-4 M by sulforhodamine B assay; conditions: read-out: Activity
HCT-116 = experiment: Growth inhibition of human HCT116 cells assessed as cell growth at 10^-4 M by sulforhodamine B assay; conditions: read-out: Activity
NCI-H322M [15] = experiment: Growth inhibition of human NCI-H322M cells assessed as cell growth at 10^-4 M by sulforhodamine B assay; conditions: read-out: Activity
MDA-MB-468 = experiment: Growth inhibition of human MDA-MB-468 cells assessed as cell growth at 10^-6 M by sulforhodamine B assay; conditions: read-out: Activity
[16] = Growth inhibition of human NCI-ADR-RES cells assessed as cell growth at 10^-6 M by sulforhodamine B assay; conditions: read-out: Activity
OVCAR-4 = experiment: Growth inhibition of human OVCAR4 cells assessed as cell growth at 10^-6 M by sulforhodamine B assay; conditions: read-out: Activity
SNB-19 = experiment: Growth inhibition of human SNB19 cells assessed as cell growth at 10^-6 M by sulforhodamine B assay; conditions: read-out: Activity
SW-620 [17] = experiment: Growth inhibition of human SW620 cells assessed as cell growth at 10^-6 M by sulforhodamine B assay; conditions: read-out: Activity
HT-29 = experiment: Growth inhibition of human HT-29 cells assessed as cell growth at 10^-6 M by sulforhodamine B assay; conditions: read-out: Activity
A549 [18] = experiment: Growth inhibition of human A549/ATCC cells assessed as cell growth at 10^-6 M by sulforhodamine B assay; conditions: read-out: Activity
PC-3 = experiment: Growth inhibition of human PC3 cells assessed as cell growth at 10^-7 M by sulforhodamine B assay; conditions: read-out: Activity
786-0 [19] = experiment: Growth inhibition of human 786-0 cells assessed as cell growth at 10^-7 M by sulforhodamine B assay; conditions: read-out: Activity
HCT-15 = experiment: Growth inhibition of human HCT15 cells assessed as cell growth at 10^-7 M by sulforhodamine B assay; conditions: read-out: Activity
NCI-H460 [20] = experiment: Growth inhibition of human NCI-H460 cells assessed as cell growth at 10^-7 M by sulforhodamine B assay; conditions: read-out: Activity
HOP-92 [21] = experiment: Growth inhibition of human HOP92 cells assessed as cell growth at 10^-7 M by sulforhodamine B assay; conditions: read-out: Activity
K562 [22] = experiment: Growth inhibition of human K562 cells assessed as cell growth at 10^-7 M by sulforhodamine B assay; conditions: read-out: Activity
[23] = Growth inhibition of human Hs 578T cells assessed as cell growth at 10^-8 M by sulforhodamine B assay; conditions: read-out: Activity
TK-10 [24] = experiment: Growth inhibition of human TK10 cells assessed as cell growth at 10^-8 M by sulforhodamine B assay; conditions: read-out: Activity
CAKI-1 = experiment: Growth inhibition of human CAKI-1 cells assessed as cell growth at 10^-8 M by sulforhodamine B assay; conditions: read-out: Activity
[25] = read-out: LC50 (the source's name)
[26] = read-out: pLC50 (the source's name) (converted)

Question: Which results are given for `C/C=C(/C)C(=O)O[C@@H]1CC(C)(C)C[C@H]2C3=CC[C@@H]4[C@@]5(C)CCC(=O)C(C)(C)[C@@H]5CC[C@@]4(C)[C@]3(C)CC[C@@]12C(=O)O` [LANTADENE A]?
Answer: GI50 (SW-620 [1]; read-out: GI50): 4.48 µM; CC50 (SW-620 [1]; [25]): > 100 µM; TGI (SW-620 [1]; read-out: TGI): > 100 µM; GI50 (SW-620 [1]; read-out: pGI50 (converted)): 4.47 µM; CC50 (SW-620 [1]; [26]): > 100 µM; TGI (SW-620 [1]; read-out: pTGI (converted)): > 100 µM; GI50 (KM12; read-out: GI50): 3.52 µM; LC50 (50% net cell kill) (KM12; read-out: LC50): > 100 µM; TGI (KM12; read-out: TGI): > 100 µM; GI50 (KM12; read-out: pGI50 (converted)): 3.55 µM; LC50 (50% net cell kill) (KM12; read-out: pLC50 (converted)): > 100 µM; TGI (KM12; read-out: pTGI (converted)): > 100 µM; GI50 (NCI-H322M [2]; read-out: GI50): 3.94 µM; LC50 (50% lethal concentration) (NCI-H322M [2]; read-out: LC50): > 100 µM; TGI (NCI-H322M [2]; read-out: TGI): > 100 µM; GI50 (NCI-H322M [2]; read-out: pGI50 (converted)): 3.98 µM; LC50 (50% lethal concentration) (NCI-H322M [2]; read-out: pLC50 (converted)): > 100 µM; TGI (NCI-H322M [2]; read-out: pTGI (converted)): > 100 µM; GI50 (HOP-62; read-out: GI50): 20.6 µM; LC50 (concentration killing 50% of cells) (HOP-62; read-out: LC50): > 100 µM; TGI (HOP-62; read-out: TGI): > 100 µM; GI50 (HOP-62; read-out: pGI50 (converted)): 20.4 µM; LC50 (concentration killing 50% of cells) (HOP-62; read-out: pLC50 (converted)): > 100 µM; TGI (HOP-62; read-out: pTGI (converted)): > 100 µM; GI50 (HOP-92 [3]; read-out: GI50): 1.19 µM; CC50 (HOP-92 [3]; [25]): > 100 µM; TGI (HOP-92 [3]; read-out: TGI): 5.36 µM; GI50 (HOP-92 [3]; read-out: pGI50 (converted)): 1.2 µM; CC50 (HOP-92 [3]; [26]): > 100 µM; TGI (HOP-92 [3]; read-out: pTGI (converted)): 5.37 µM; GI50 (K562 [4]; read-out: GI50): 4.72 µM; LC50 (K562 [4]; read-out: LC50): > 100 µM; TGI (K562 [4]; read-out: TGI): > 100 µM; GI50 (K562 [4]; read-out: pGI50 (converted)): 4.68 µM; LC50 (K562 [4]; read-out: pLC50 (converted)): > 100 µM; TGI (K562 [4]; read-out: pTGI (converted)): > 100 µM; growth at 0.01 µM (UACC-62 [5]): 97%; growth at 0.01 µM (SW-620 [6]): 100%; growth at 0.01 µM (NCI-H460 [7]): 104%; growth at 0.01 µM (NCI-H522): 109%; growth at 0.01 µM (A549 [8]): 94%; growth at 0.01 µM (MOLT-4): 104%; GI50 (SK-OV-3; read-out: GI50): 18 µM; CC50 (SK-OV-3; [25]): > 100 µM; TGI (SK-OV-3; read-out: TGI): > 100 µM; GI50 (SK-OV-3; read-out: pGI50 (converted)): 18.2 µM; CC50 (SK-OV-3; [26]): > 100 µM; TGI (SK-OV-3; read-out: pTGI (converted)): > 100 µM; GI50 ([9]; read-out: GI50): 5.12 µM; CC50 [9, 25]: > 100 µM; TGI ([9]; read-out: TGI): > 100 µM; GI50 ([9]; read-out: pGI50 (converted)): 5.13 µM; CC50 [9, 26]: > 100 µM; TGI ([9]; read-out: pTGI (converted)): > 100 µM; GI50 (IGROV-1 [10]; read-out: GI50): 6.75 µM; CC50 (IGROV-1 [10]; [25]): > 100 µM; TGI (IGROV-1 [10]; read-out: TGI): > 100 µM; GI50 (IGROV-1 [10]; read-out: pGI50 (converted)): 6.76 µM; CC50 (IGROV-1 [10]; [26]): > 100 µM; TGI (IGROV-1 [10]; read-out: pTGI (converted)): > 100 µM; GI50 (SK-MEL-2; read-out: GI50): 3.07 µM; CC50 (SK-MEL-2; [25]): > 100 µM; TGI (SK-MEL-2; read-out: TGI): 8.07 µM; GI50 (SK-MEL-2; read-out: pGI50 (converted)): 3.09 µM; CC50 (SK-MEL-2; [26]): > 100 µM; TGI (SK-MEL-2; read-out: pTGI (converted)): 8.13 µM; growth at 100 µM (TK-10 [11]): 6%; growth at 100 µM (786-0 [12]): 4%; growth at 100 µM (IGROV-1 [13]): 30%; growth at 100 µM (UACC-62 [14]): -70%; growth at 100 µM (HCT-116): 11%; growth at 100 µM (NCI-H322M [15]): 17%; growth at 1 µM (MDA-MB-468): 74%; growth at 1 µM [16]: 97%; growth at 1 µM (OVCAR-4): 86%; growth at 1 µM (SNB-19): 91%; growth at 1 µM (SW-620 [17]): 90%; growth at 1 µM (HT-29): 85%; growth at 1 µM (A549 [18]): 80%; growth at 0.1 µM (PC-3): 83%; growth at 0.1 µM (786-0 [19]): 94%; growth at 0.1 µM (HCT-15): 106%; growth at 0.1 µM (NCI-H460 [20]): 98%; growth at 0.1 µM (HOP-92 [21]): 71%; growth at 0.1 µM (K562 [22]): 100%; growth at 0.01 µM [23]: 97%; growth at 0.01 µM (TK-10 [24]): 99%; growth at 0.01 µM (CAKI-1): 96%
